Results from patent US20160367529A1, “DEBILITY PREVENTATIVE” (AJINOMOTO CO., INC., priority 2014, published 2016).

Test: Body weight of low protein model rat fed amino acid added diet
Assay type: in vivo
Conditions: vs 1% C group
Description: Using 10-week-old CD(SD) male rats, they were raised on a 1 wt % casein feed obtained by reducing the protein in standard purified diet AIN-93G (manufactured by Oriental yeast Co., Ltd.) (Table 14). The animal fed on the 1 wt % casein diet for 28 days (4 weeks) was used as a low protein model, and an influence of amino acid administration was evaluated. 10-week-old CD(SD) male rats were divided into the groups shown in Table 17, casein 20 wt % (20% C group) or 1 wt % feed was fed for 28 days according to the schedule shown in FIG. 1, and the body weight of rats thereafter fed with a 1 wt % casein diet (1% C group),and further added with each amino acid shown in Table 16 (4AA addition group (4AA group); a group of 4AA less tryptophan (−Trp group); a group of 4AA less methionine (−Met group); and a group of 4AA less threonine (−Thr group)) was measured. 10-week-old CD(SD) male rats were divided into the groups shown in Table 18, casein 20 wt % (20% C group) or 1 wt % feed was fed for 28 days according to the schedule shown in FIG. 1, and the body weight of rats thereafter fed with a 1 wt % casein diet (1% C group), and further added with the amino acid shown in Table 16 (4AA addition group (4AA group); an isoleucine and threonine combined use group (Ile, Thr group); an isoleucine addition group (Ile group); and the a threonine addition group (Thr group)) was measured. 10-week-old CD(SD) male rats were divided into the groups shown in Table 19, casein 20 wt % (20% C group) or 1 wt % feed was fed for 28 days according to the schedule shown in FIG. 1, and the body weight and weight of viscera-isolated carcass of rats thereafter fed for 14 days with a 1 wt % casein diet (1% C group), and further added with 1.15 g of the amino acid shown in Table 20 per 1 kg feed (4AA addition group (4AA group); a group of essential and non-essential amino acids addition group less 4AA (ALL-4AA group); essential amino acid addition group less 4AA (EAA-4AA group), non-essential amino acid addition group (NEAA group); and glycine addition group (Gly group)) was measured. […]

[1] = Experimental Example 4, 14 days after feeding amino acid added 1 wt % casein diet, FIG. 5

SMILES | body weight (ratio to day 0) (Experimental Example 5, 14 days after feeding diet with 1.15 g amino acid per 1 kg feed, FIG. 6) | body weight (ratio to day 0) [1]
NCC(=O)O [Gly, glycine] | not recovered | 
CC[C@H](C)[C@H](N)C(=O)O [Ile, isoleucine] |  | increase of the body weight was weakened
C[C@@H](O)[C@H](N)C(=O)O [Thr, threonine] |  | significantly recovered
